According to US20240391923A1, “METHIONINE ADENOSYLTRANSFERASE 2A INHIBITOR FOR TREATING MTAP DELETION-TYPE CANCER” (SUZHOU GENHOUSE BIO CO., LTD., priority 2022, published 2024):
Where two headings read alike, the source gives them in different places.

Assays:
[1] = biological target: MAT2A recombinant protein (Homo sapiens, UniProt P31153); experiment: MAT2A inhibitory activity (malachite green colorimetric enzyme assay); assay type: biochemical
Excerpt: MAT2A catalyzes the reaction of L-methionine and ATP to generate S-adenosylmethionine (SAM), inorganic phosphonic acid, and inorganic diphosphonic acid. Malachite green reacts with inorganic phosphonic acid to generate a green product, and the enzyme activity of MAT2A can be indirectly reflected by detecting the content of the inorganic phosphonic acid in a sample.
The test compounds were formulated using DMSO and diluted 1:3 diluted through 10 concentration points to give a final starting concentration in the reaction system of 1000 nM. The test compounds at different concentrations described above were transferred to a 384-well plate. Experimental buffer (50 mM HEPES pH 7.5, 50 mM KCl, 10 mM MgCl2, 10 mM DTT) was prepared. 2×MAT2A recombinant protein was prepared using the buffer and added to a 384-well plate. A mixed solution of 2×L-methionine and ATP was prepared using the buffer, and added to a 384-well plate. The enzymatic reaction was started, and the reaction was carried out at room temperature for 60 min. 20 μL of a colorimetric detection reagent was added to the above system, and incubated at room temperature for 15 min. The absorbance at 630 nm was measured. The inhibition rate of the compound on the enzyme activity was calculated, and the inhibition rate value and the logarithm value of the compound concentration were fitted using non-linear regression (dose response-variable slope) to give the IC50 value of the test compound.

[2] = system: SDMA in human colon cancer cell line HCT116; experiment: Cell symmetric dimethylarginine (SDMA) test, In-cell Western, HCT116 (MTAP wild-type); assay type: cell-based; conditions: Homo sapiens, HCT-116, 96 h
Excerpt: MAT2A catalyzes the reaction of L-methionine and ATP to generate SAM, inorganic phosphonic acid, and inorganic diphosphonic acid. SAM is an important methyl donor, and is a substrate of arginine methyltransferase 5 (PRMT5). PRMT5 catalyzes SDMA modification of multiple proteins within a cell. The intracellular SDMA modification level was detected by ICW (In-cell Western), and the inhibition of the test compound on the enzymatic activity of intracellular MAT2A was indirectly reflected.
In the present application, the human colon cancer cell line HCT116 and the corresponding HCT116-MTAP-knockout cell line were seeded into a 96-well cell culture plate at an appropriate cell density. After 24 h, the cells were treated using the test compounds diluted 1:4 fold at the highest concentration of 6 μM for 6 gradients, and a DMSO treatment group was set up separately. The cells were cultured in a 37° C./5% CO2 incubator for 4 days. To test the inhibitory activity of the test compounds against tumor cell SDMA, the medium was discarded, and the plate was washed 3 times with PBST. 4% paraformaldehyde was then used at room temperature for fixation for 20 min. The fixation solution was discarded, the plate was washed 3 times with PBST, and a special blocking solution was added to each well for blocking at room temperature for 2 h. The blocking solution was discarded. After the plate was washed 3 times with PBST, the plate was incubated with SDMA antibody at 4° C. overnight. The next day, the plate was washed 3 times with PBST. The secondary antibody and DRAQ5 were diluted to an appropriate concentration with the blocking solution, and incubated at room temperature for 2 h; the plate was washed 3 times with PBST, and the fluorescence signals at 700 nm and 800 nm were detected using a Li—COR Odyssey two-color near-infrared laser imager.
The data was then processed. After the corresponding background value was subtracted from each well, statistical analysis was performed on the 800 nm/700 nm ratio for each well, a sigmoidal dose-inhibition curve was plotted using a non-linear regression model, and IC50 values were fitted and calculated. Inhibition Rate (%)=(1−SDMA dose/SDMA DMSO control)*100. SDMA dose is the value of the drug treatment group, and SDMA DMSO control is the value of the DMSO control group.

[3] = system: HCT116-MTAP wild-type (+/+)-cell strain; experiment: Tumor cell proliferation inhibition assay (CellTiter-Glo), HCT116-MTAP wild-type (+/+); assay type: cell-based; conditions: Homo sapiens, 120 h, 5-day treatment
Description: (§1) After the HCT116-MTAP-knockout (−/−) cell strain, the HCT116-MTAP wild-type(+/+)-cell strain, the DOHH-2 cell strain, or the Hut-78 cell strain was treated with the test compound for 5 days, the ATP level was measured using a CellTiter-Glo kit of Promega to evaluate the inhibition of the test compound against the growth of the tumor cell strain.
(§2) In the present application, the HCT116-MTAP-knockout (−/−) cell strain, the HCT116-MTAP wild-type (+/+)-cell strain, the DOHH-2 cell strain, or the Hut-78 cell strain was seeded into a 96-well cell culture plate at an appropriate cell density. After 24 h, the cells were treated using the test compounds diluted 1:3 fold at the highest concentration of 10 μM for 10 gradients, and a DMSO treatment group was set up separately. The cells were cultured in a 37° C./5% CO2 incubator for 5 days.

[4] = system: SDMA in HCT116-MTAP-knockout cell line; experiment: Cell symmetric dimethylarginine (SDMA) test, In-cell Western, HCT116-MTAP-knockout; assay type: cell-based; conditions: Homo sapiens, 96 h
[5] = system: HCT116-MTAP-knockout (−/−) cell strain; experiment: Tumor cell proliferation inhibition assay (CellTiter-Glo), HCT116-MTAP-knockout (-/-); assay type: cell-based; conditions: Homo sapiens, 120 h, 5-day treatment
Description: as §1, §2

[6] = IC50 score class, read-out: MAT2A Inhibition (score)
[7] = IC50 score class, read-out: Cell 96 h SDMA Inhibition (HCT116-MTAP+/+) (score)
[8] = read-out: Cell 96 h SDMA inhibition (HCT116-MTAP+/+)
[9] = HCT116-MTAP wild-type (+/+) cells, IC50 score, read-out: Tumor cell 5-day relative growth inhibition (HCT116-MTAP+/+) (nM), score
[10] = HCT116-MTAP wild-type (+/+) cells, IC50 value, read-out: Tumor cell 5-day relative growth inhibition (HCT116-MTAP+/+)
[11] = IC50 score class, read-out: Cell 96 h SDMA Inhibition (HCT116-MTAP−/−) (score)
[12] = read-out: Cell 96 h SDMA Inhibition (HCT116-MTAP−/−)
[13] = HCT116-MTAP-knockout (−/−) cells, IC50 score, read-out: Tumor cell 5-day relative growth inhibition (HCT116-MTAP−/−) (nM), score
[14] = HCT116-MTAP-knockout (−/−) cells, IC50 value, read-out: Tumor cell 5-day relative growth inhibition (HCT116-MTAP−/−)

Chain of MAT2A recombinant protein (P31153 whole entry): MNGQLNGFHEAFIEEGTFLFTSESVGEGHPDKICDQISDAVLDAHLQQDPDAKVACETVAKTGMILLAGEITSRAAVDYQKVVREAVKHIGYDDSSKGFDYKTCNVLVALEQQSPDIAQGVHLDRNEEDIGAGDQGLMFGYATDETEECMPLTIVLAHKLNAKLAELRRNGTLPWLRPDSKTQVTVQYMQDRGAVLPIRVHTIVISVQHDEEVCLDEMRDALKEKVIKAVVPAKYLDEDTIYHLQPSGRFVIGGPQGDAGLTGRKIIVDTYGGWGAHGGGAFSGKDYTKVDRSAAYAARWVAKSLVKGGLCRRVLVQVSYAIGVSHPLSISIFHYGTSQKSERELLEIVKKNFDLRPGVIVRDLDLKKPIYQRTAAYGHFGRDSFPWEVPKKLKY

IC50 [1, 6] [nM] | IC50 ([1]; read-out: MAT2A Inhibition) [nM] | IC50 [2, 7] [nM] | IC50 [2, 8] [nM] | IC50 [3, 9] [nM] | IC50 [3, 10] [nM] | IC50 [4, 11] [nM] | IC50 [4, 12] [nM] | IC50 [5, 13] [nM] | IC50 [5, 14] [nM] | IC50 ([3]; HCT116-MTAP+/+ cells, IC50 class score, read-out: Tumor cell 5-day relative growth inhibition (HCT116-MTAP+/+) (nM), score) [nM] | IC50 ([3]; HCT116-MTAP+/+ cells, read-out: Tumor cell 5-day relative growth inhibition (HCT116-MTAP+/+)) [nM] | IC50 ([5]; HCT116-MTAP−/− cells, IC50 class score, read-out: Tumor cell 5-day relative growth inhibition (HCT116-MTAP−/−) (nM), score) [nM] | IC50 ([5]; HCT116-MTAP−/− cells, read-out: Tumor cell 5-day relative growth inhibition (HCT116-MTAP−/−)) [nM] | SMILES
< 100 | 19.7 | > 3000 | 3440 | ≥ 2000 | 12800 | 200 to 1000 | 222 | 500 to 2000 | 1160 |  |  |  |  | O=c1c2nn(C(F)F)cc2c2ccc(C(F)(F)F)nc2n1-c1cccnc1 [Compound B255]
< 100 | 14.7 | > 3000 | > 10000 | < 500 | 477 | < 200 | 11 | < 500 | 50 |  |  |  |  | O=c1c2n[nH]cc2c2ccc(C(F)(F)F)nc2n1-c1cccc2[nH]ncc12 [Compound B239]
 |  | > 3000 | > 10000 | ≥ 2000 | > 10000 | < 200 | 20 | < 500 | 223 |  |  |  |  | Cn1cc2c(n1)c(=O)n(-c1cccnc1C(F)(F)F)c1cc(Cl)c(F)cc21 (single isomer, unassigned) [Compound B389]
< 100 | 58 | > 3000 | > 10000 | ≥ 2000 | > 10000 | 200 to 1000 | 554 | ≥ 2000 | > 10000 |  |  |  |  | Cn1cc2c(n1)c(=O)n(-c1cccc3ccccc13)c1cc(Cl)c(F)cc21 [Compound B370]
< 100 | 19 | > 3000 | > 10000 |  |  | < 200 | 26 |  |  | ≥ 2000 | 6840 | < 500 | 359 | N#Cc1cc2c3c[nH]nc3c(=O)n(-c3cccc4[nH]ncc34)c2cc1Cl [Compound B394]
< 100 | 81 | > 3000 | > 10000 | ≥ 2000 | 5240 | 1000 to 3000 | 1240 | ≥ 2000 | 3650 |  |  |  |  | CN1CCN(c2ccc(Cn3cc4c(n3)c(=O)n(-c3cccc5[nH]ncc35)c3cc(Cl)c(F)cc43)cn2)CC1 [Compound B268]
 |  | > 3000 | > 3000 | ≥ 2000 | 23300 | 200 to 1000 | 218 | < 500 | 81.7 |  |  |  |  | Cn1cc2c(n1)c(=O)n(-c1cccnc1C(F)(F)F)c1nc(C(F)(F)F)ccc21 [Compound B80]
< 100 | 26 | > 3000 | > 10000 | ≥ 2000 | > 10000 | < 200 | 10 | 500 to 2000 | 765 |  |  |  |  | Cn1cnc2c(=O)n(-c3cccnc3C(F)(F)F)c3cc(Cl)c(F)cc3c21 [Compound B351]
< 100 | 19.3 |  |  | 500 to 2000 | 1230 | 200 to 1000 | 202 | < 500 | 378 |  |  |  |  | Cc1c2c(nn1C(F)F)c(=O)n(-c1cccnc1)c1nc(C(F)(F)F)ccc21 [Compound B252]
 |  | > 3000 | > 10000 | ≥ 2000 | > 10000 |  |  | 500 to 2000 | 579 |  |  |  |  | O=c1c2nn(C(F)F)cc2c2cc(F)c(Cl)cc2n1-c1cccnc1C1CC1 [Compound B337]
< 100 | 12 | > 3000 | > 10000 | ≥ 2000 | 9700 | < 200 | 18.7 | < 500 | 145 |  |  |  |  | Cn1cnc2c(=O)n(-c3cccnc3C3CC3)c3cc(Cl)c(F)cc3c21 [Compound B336]
< 100 | 9.3 | 200 to 1000 | 687 | < 500 | 173 | < 200 | 3.7 | < 500 | 21 |  |  |  |  | O=c1c2n[nH]cc2c2cc(F)c(Cl)cc2n1-c1cccc2[nH]ncc12 [Compound B263]
< 100 | 28.1 | > 3000 | 3970 | 500 to 2000 | 939 | 200 to 1000 | 110 | < 500 | 299 |  |  |  |  | O=c1c2nn(C3CC3)cc2c2ccc(C(F)(F)F)nc2n1-c1cccc2[nH]ncc12 [Compound B250]
< 100 | 45.1 | > 3000 | > 3000 | ≥ 2000 | > 2000 | 200 to 1000 | 213 | < 500 | 41.4 |  |  |  |  | Cn1cc2c(n1)c(=O)n(-c1cccnc1C(F)(F)F)c1cc(Cl)ccc21 [Compound B68]
< 100 | 9.6 | > 3000 | > 10000 | ≥ 2000 | > 10000 | < 200 | 6.2 | < 500 | 87 |  |  |  |  | Cn1cc2c(n1)c(=O)n(-c1cccnc1C1CC1)c1nc(C3CC3)c(F)cc21 [Compound B359]
< 100 | 83 |  |  | ≥ 2000 | 7600 | 200 to 1000 | 517 | 500 to 2000 | 1400 |  |  |  |  | Cn1cc2c(n1)c(=O)n(-c1cccc3[nH]ncc13)c1cc(Cl)cnc21 [Compound B273]
